Results as given in patent publication US5043332A, “Novel 11β-substituted -19-nor-steriods” (priority 1981, dated 1991).

Tests used:
[1] = target: T1, Androgen receptor of prostate of rats (Rattus norvegicus, UniProt P15207); assay: Androgen receptor binding (displacement of tritiated product P); details: for affinity for androgen receptors (in words): conclusion
T1 construct: The prostates were removed, weighed and homogenized at 0° C; from tissue; host or cells: rat prostate, 105,000 g supernatant (castrated male Sprague-Dawley rats)
T1 sequence (P15207 1-902): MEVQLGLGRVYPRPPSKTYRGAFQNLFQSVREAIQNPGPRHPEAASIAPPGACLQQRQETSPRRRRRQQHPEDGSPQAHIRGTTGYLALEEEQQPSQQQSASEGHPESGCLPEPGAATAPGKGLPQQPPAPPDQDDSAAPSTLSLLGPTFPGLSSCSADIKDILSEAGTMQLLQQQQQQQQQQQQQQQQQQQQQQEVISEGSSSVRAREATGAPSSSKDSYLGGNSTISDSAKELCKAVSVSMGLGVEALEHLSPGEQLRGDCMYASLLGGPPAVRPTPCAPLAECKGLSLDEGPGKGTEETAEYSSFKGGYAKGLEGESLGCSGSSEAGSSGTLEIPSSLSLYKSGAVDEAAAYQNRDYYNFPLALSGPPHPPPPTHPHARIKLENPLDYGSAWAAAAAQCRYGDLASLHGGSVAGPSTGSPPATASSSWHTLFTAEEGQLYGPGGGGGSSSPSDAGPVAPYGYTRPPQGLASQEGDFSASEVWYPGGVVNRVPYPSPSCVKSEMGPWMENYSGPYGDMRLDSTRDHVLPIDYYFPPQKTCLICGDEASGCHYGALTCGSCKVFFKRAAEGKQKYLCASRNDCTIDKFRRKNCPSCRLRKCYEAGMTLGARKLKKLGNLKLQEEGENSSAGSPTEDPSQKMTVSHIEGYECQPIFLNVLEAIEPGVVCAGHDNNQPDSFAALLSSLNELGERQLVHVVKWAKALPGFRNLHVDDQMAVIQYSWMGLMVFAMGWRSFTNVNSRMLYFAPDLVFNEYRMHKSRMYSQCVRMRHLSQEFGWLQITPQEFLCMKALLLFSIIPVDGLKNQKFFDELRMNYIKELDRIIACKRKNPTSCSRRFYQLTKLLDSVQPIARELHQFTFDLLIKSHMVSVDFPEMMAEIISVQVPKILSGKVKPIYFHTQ
Method: B. Androgen receptor of prostate of rats
Male Sprague-Dawley EPOS rats weighing of 160 to 200 g were castrated and 24 hours later, the animals were killed. The prostates were removed, weighed and homogenized at 0° C. with a polytetrafluoroethylene-glass Potter with a buffered TS solution (Tris, 10 mM, 0.25M Saccharose, HCl-pH of 7.4) using 1 g of tissue per 5 ml of TS. The homogenate was then ultracentrifuged at 105,000 g for 60 […] (T) of product P or 17α-methyl-Δ^4,9,11 -estratriene-17β-ol-3-one in the presence of increasing concentration (0-1,000×10^-9 M) of either cold P, cold testosterone or the test compound. The concentration of tied tritiated (B) was measured for each incubate by the technique of adsorption on carbon-dextran.
(§1) The calculation of the relative affinity of […] (ARL) was identical for all of the above receptor tests. One traced the following two curves: the percentage of tied tritiated hormone B/T as a function of the logarithm of the cold hormone concentration and B/T as a function of the logarithm of the concentration of the cold test product. One determined the line of the equation. [formula]
(§2) The intersection of the I50 line and the curves permits one to determine the concentrations of the cold hormone of the reference (CH) and the cold test compound (CX) which inhibit by 50% the tieing of tritiated hormone with the receptor. The relative affinity of tieing (ARL) of the test product was determined by the equation: [formula]

[2] = target: T2, Gluocorticoid receptor of thymus of rats (Rattus norvegicus, UniProt P06536); assay: Glucocorticoid receptor binding (displacement of tritiated dexamethasone); details: for affinity for glucocorticoid receptors (in words): conclusion
T2 construct: The thymus were removed and homogenized at 0° C; from tissue; host or cells: rat thymus, 105,000 g supernatant (adrenalectomized male Sprague-Dawley rats)
T2 sequence (P06536 1-795): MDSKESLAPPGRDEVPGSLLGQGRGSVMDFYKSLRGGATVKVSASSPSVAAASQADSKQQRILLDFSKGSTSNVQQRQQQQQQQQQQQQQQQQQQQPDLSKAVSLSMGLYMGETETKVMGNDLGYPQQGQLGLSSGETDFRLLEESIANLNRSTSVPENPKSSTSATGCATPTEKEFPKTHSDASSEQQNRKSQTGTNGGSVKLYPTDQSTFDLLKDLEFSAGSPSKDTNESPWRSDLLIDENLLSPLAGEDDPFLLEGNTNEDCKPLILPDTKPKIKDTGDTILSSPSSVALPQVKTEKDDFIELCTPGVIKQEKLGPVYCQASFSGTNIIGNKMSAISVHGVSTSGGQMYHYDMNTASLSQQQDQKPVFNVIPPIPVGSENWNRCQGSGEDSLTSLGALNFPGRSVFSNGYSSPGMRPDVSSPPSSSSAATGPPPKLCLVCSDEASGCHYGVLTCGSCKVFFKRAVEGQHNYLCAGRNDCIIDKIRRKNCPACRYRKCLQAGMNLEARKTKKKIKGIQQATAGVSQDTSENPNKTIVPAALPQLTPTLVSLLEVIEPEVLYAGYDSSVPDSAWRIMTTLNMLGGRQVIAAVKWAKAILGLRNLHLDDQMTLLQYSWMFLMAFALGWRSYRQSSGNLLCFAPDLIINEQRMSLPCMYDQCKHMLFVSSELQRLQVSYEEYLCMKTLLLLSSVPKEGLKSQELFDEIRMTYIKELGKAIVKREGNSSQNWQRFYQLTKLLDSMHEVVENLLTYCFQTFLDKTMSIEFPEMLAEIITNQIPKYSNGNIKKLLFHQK
Method: D. Gluocorticoid receptor of thymus of rats
Male Sprague-Dawley EPOS rats weighing 160 to 200 g were surrenalectomized and the animals were killed 4 to 8 days later. The thymus were removed and homogenized at 0° C. in a buffered TS solution of 10 mM, Tris, 0.25M of Saccharose, 2 mM of dithiothreitol HCl for a pH of 7.4 using a polytetrafluoroethylene-glass Potter at a rate of 1 g of tissue per 10 ml of TS. […] The concentration of tied tritiated dexamethasone (B) was measured for each incubate by the adsorption on carbon-dextran technique.
as §1, §2

[3] = second table, incubation 24 H at 0° C.
[4] = second table, incubation 4 H at 0° C.

Compound	relative affinity of tieing (ARL), Glucocorticoid ([2]; incubation 4 H at 0° C.)	relative affinity of tieing (ARL), Glucocorticoid ([2]; incubation 24 H at 0° C.)	relative affinity of tieing (ARL), Androgen [1, 3]	relative affinity of tieing (ARL), Glucocorticoid [2, 4]	relative affinity of tieing (ARL), Glucocorticoid [2, 3]	also measured
CC#C[C@]1(OC(C)=O)CC[C@H]2[C@@H]3CCc4cc(O)ccc4[C@H]3[C@@H](c3ccc(N(C)C)cc3)C[C@@]21C [2 (17 OAc), 11β-(4-dimethylaminophenyl)-17α-(prop-1-ynyl)-17β-acetoxy-Δ^1,3,5(10) -estratriene-3-ol]	58	100				relative affinity of tieing (ARL), Androgen ([1]; incubation 1/2H at 0° C.): < 0,1; relative affinity of tieing (ARL), Androgen ([1]; incubation 24 H at 0° C.): < 0,1
CC#C[C@]1(O)CC[C@H]2[C@@H]3CCC4=CC(=O)[C@H](C)CC4=C3[C@@H](c3ccc(N(C)C)cc3)C[C@@]21C [5 (2α), 2α-methyl-11β-(4-dimethylaminophenyl)-17α-(prop-1-ynyl)-Δ^4,9-estradiene-17β-ol-3-one]	214	255				relative affinity of tieing (ARL), Androgen ([1]; incubation 1/2H at 0° C.): 0,5; relative affinity of tieing (ARL), Androgen ([1]; incubation 24 H at 0° C.): 0,4
CC#C[C@]1(O)CC[C@H]2[C@@H]3CCC4=CC(=O)[C@@H](C)CC4=C3[C@@H](c3ccc(N(C)C)cc3)C[C@@]21C [5 (2β), 2-methyl-11β-(4-dimethylaminophenyl)-17α-(prop-1-ynyl)-Δ^4,9-estradiene-17β-ol-3-one]	224	299				relative affinity of tieing (ARL), Androgen ([1]; incubation 1/2H at 0° C.): 0,7; relative affinity of tieing (ARL), Androgen ([1]; incubation 24 H at 0° C.): 0,5
CC#C[C@]1(O)CC[C@H]2[C@@H]3CCC4=CC(=O)C(C)(C)CC4=C3[C@@H](c3ccc(N(C)C)cc3)C[C@@]21C [Example 1, 2,2-dimethyl-11β-(4-dimethylaminophenyl)-17α-(prop-1-ynyl)-Δ^4,9-estradiene-17β-ol-3-one]	97	38				
CC#C[C@]1(O)CC[C@H]2[C@@H]3CCC4=CC(=O)[C@H](C)CC4=C3[C@@H](c3ccc(N(C)C)cc3)C[C@@]21C [Example 5, 2α-methyl-11β-(4-dimethylaminophenyl)-17α-(prop-1-ynyl)-Δ^4,9-estradiene-17β-ol-3-one]						affinity for androgen receptors (in words) [1]: slightly moderate affinity; affinity for glucocorticoid receptors (in words) [2]: very remarkable affinity
CC#C[C@]1(O)CC[C@H]2[C@@H]3CCC4=C(CCC(=O)C4)[C@H]3[C@@H](c3ccc(N(C)C)cc3)C[C@@]21C [Example 10, 11β-(4-dimethylaminophenyl)-17α-(prop-1-ynyl)-Δ^5(10) -estrene-17β-ol-3-one]	83	115				
CC#C[C@]1(O)CC[C@H]2[C@@H]3CCC4=CC(=O)CCC4=C3[C@@H](c3ccc(N(C)C)cc3)C[C@@]21C [Example 19, 11β-[4-(N,N-dimethylamino)-phenyl]-17α-(prop-1-ynyl)-Δ^4,9-estradiene-17β-ol-3-one]						affinity for glucocorticoid receptors (in words) [2]: very remarkable affinity
C[C@]12C[C@H](c3ccc([N+](C)(C)[O-])cc3)[C@]34O[C@]35CCC(=O)C=C5CC[C@H]4[C@@H]1CC[C@@]2(O)C#CCl [Example 27, N-oxide of 11β-[4-(N,N-dimethylamino)-phenyl]-9α,10α-epoxy-21-chloro-19-nor-17α-Δ^4-pregnene-20-yne-17β-ol-3-one]			2,8	5,3	6,2	

Continued, in another order:

relative affinity of tieing (ARL), Glucocorticoid ([2]; incubation 4 H at 0° C.)	relative affinity of tieing (ARL), Glucocorticoid ([2]; incubation 24 H at 0° C.)	relative affinity of tieing (ARL), Androgen [1, 3]	relative affinity of tieing (ARL), Glucocorticoid [2, 4]	relative affinity of tieing (ARL), Glucocorticoid [2, 3]	Compound	also measured
14	7				CC#C[C@]1(O)CC[C@H]2[C@@H]3CCC4=CC(=O)C(C#N)(C#N)CC4=C3[C@@H](c3ccc(N(C)C)cc3)C[C@@]21C [Example 9, 2,2-dicyano-11β-(4-dimethylaminophenyl)-17α-(prop-1-ynyl)-Δ^4,9-estradiene-17β-ol-3-one]	relative affinity of tieing (ARL), Androgen ([1]; incubation 1/2H at 0° C.): < 0,1; relative affinity of tieing (ARL), Androgen ([1]; incubation 24 H at 0° C.): < 0,1
		7,3	171	118	C#C[C@@]1(O)CC[C@H]2[C@@H]3CCC4=CC(=O)CCC4=C3[C@@H](c3ccc(N(C)C)cc3)C[C@@]21C [Example 21, 11β-[4-(N,N-dimethylamino)-phenyl]-17β-ethynyl-Δ^4,9-estradiene-17α-ol-3-one]	
		14,7	212	167	C=C(C)C#C[C@]1(O)CC[C@H]2[C@@H]3CCC4=CC(=O)CCC4=C3[C@@H](c3ccc(N(C)C)cc3)C[C@@]21C [Example 23, 11β-[4-(N,N-dimethylamino)-phenyl]-23-methyl-19,21-dinor-17α-Δ^4,9,23-cholatriene-20-yn-17β-ol-3-one]	
		32	254	292	CN(C)c1ccc([C@H]2C[C@@]3(C)[C@@H](CC[C@@]3(O)C#CCl)[C@@H]3CCC4=CC(=O)CCC4=C32)cc1 [Example 25, 11β-[4-(N,N-dimethylamino)-phenyl]-21-chloro-19-nor-17α-Δ^4,9-pregnadiene-20-yne-17β-ol-3-one]	affinity for androgen receptors (in words) [1]: slightly moderate affinity; affinity for glucocorticoid receptors (in words) [2]: very remarkable affinity
		9,8	9	14	C[C@]12C[C@H](c3ccc([N+](C)(C)[O-])cc3)C3=C4CCC(=O)C=C4CC[C@H]3[C@@H]1CC[C@@]2(O)C#CCl [Example 26, N-oxide of 11β-[4-(N,N-dimethylamino)-phenyl]-21-chloro-19-nor-17α-Δ^4,9-pregnadiene-20-yne-17β-ol-3-one]	
		0	46	94	CN(C)c1ccc([C@H]2C[C@@]3(C)[C@@H](CC[C@@]3(O)C#Cc3ccccc3)[C@@H]3CCC4=CC(=O)CCC4=C32)cc1 [Example 29, 11β-[4-(N,N-dimethylamino)-phenyl]-21-phenyl-19-nor-17α-Δ^4,9-pregnadiene-20-yne-17β-ol-3-one]	
